This note sets out measurements from patent publication US20110105420A1, “AMINOSUGAR COMPOUND AND PROCESS FOR PRODUCTION THEREOF” (Astellas Pharma Inc., priority 2008, published 2011).

For data set [1], the target named is T1, human pancreatic α-amylase (Homo sapiens, UniProt P04746).
T1 construct: The solutions of α-amylases from human saliva and pancreas were prepared from the enzymes purchased from Sigma-Aldrich Co; purchased Sigma-Aldrich Co; host or cells: human pancreas
T1 sequence (P04746 16-511): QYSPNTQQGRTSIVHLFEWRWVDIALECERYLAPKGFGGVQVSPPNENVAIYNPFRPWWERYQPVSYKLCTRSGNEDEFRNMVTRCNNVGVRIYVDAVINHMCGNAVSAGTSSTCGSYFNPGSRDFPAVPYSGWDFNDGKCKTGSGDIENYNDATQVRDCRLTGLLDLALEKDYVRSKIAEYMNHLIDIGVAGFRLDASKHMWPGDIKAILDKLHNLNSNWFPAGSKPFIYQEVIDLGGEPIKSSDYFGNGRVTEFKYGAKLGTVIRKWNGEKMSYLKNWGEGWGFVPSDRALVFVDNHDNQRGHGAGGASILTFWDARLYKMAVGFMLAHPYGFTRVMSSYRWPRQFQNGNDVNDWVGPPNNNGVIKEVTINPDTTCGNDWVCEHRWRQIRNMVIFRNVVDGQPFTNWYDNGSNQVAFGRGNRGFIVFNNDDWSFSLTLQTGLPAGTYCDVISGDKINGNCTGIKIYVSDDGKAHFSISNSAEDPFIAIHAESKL
Nature of the data set: α-amylase inhibitory activity (starch-iodine absorbance). As to conditions: enzyme from Sigma-Aldrich, starch substrate, 37° C., pH=7.0; read-out: inhibitory activity (IC50 value) against the human pancreatic α-amylase. The data set is classed as biochemical. Here is the method: (§1) The solutions of pancreatic α-amylases of mouse, rat, dog and monkey were prepared from the pancreases of an ICR mouse (male, 8 weeks old, purchased from SLC Japan, Inc.), an SD rat (male, 8 weeks old, purchased from Charles River Laboratories Japan, Inc.), a beagle dog (male, 35 months old, purchased from Narc Corp.), and a cynomolgus monkey (male, 10 years old, purchased from CLEA Japan, Inc.). The solutions of α-amylases from human saliva and pancreas were prepared from the enzymes purchased from Sigma-Aldrich Co. These α-amylase solutions were all diluted to 800 U/mL using an assay buffer (48 mM NaCl, 5.4 mM KCl, 28 mM Na2HPO4, 43 mM NaH2PO4, 35 mM mannitol, pH=7.0). The various α-amylase solutions (20 U, 25 μL) and the compounds dissolved in the assay buffer (25 μL) were added to a 96-well microplate, and the microplate was incubated at 37° C. for 10 minutes. Subsequently, a starch solution (5 mg/mL, 50 μL) was added thereto, and the microplate was incubated at 37° C. for 10 minutes. A 0.33 M perchloric acid solution (50 μL) was added to the microplate to terminate the enzymatic reaction, and then a 0.01 M iodine solution (50 μL) was added thereto to color the solutions. The absorbance (660 nm) of each of the solutions was measured. The concentration of the compound inhibiting 50% of the α-amylase activity was calculated as the IC50 value.

Data set [2] addresses T2, rat pancreatic α-amylase (Rattus norvegicus, UniProt P00689).
T2 construct: The solutions of pancreatic α-amylases of mouse, rat, dog and monkey were prepared from the pancreases; from tissue; host or cells: pancreas of SD rat (male, 8 weeks old, Charles River Laboratories Japan)
T2 sequence (P00689 16-508): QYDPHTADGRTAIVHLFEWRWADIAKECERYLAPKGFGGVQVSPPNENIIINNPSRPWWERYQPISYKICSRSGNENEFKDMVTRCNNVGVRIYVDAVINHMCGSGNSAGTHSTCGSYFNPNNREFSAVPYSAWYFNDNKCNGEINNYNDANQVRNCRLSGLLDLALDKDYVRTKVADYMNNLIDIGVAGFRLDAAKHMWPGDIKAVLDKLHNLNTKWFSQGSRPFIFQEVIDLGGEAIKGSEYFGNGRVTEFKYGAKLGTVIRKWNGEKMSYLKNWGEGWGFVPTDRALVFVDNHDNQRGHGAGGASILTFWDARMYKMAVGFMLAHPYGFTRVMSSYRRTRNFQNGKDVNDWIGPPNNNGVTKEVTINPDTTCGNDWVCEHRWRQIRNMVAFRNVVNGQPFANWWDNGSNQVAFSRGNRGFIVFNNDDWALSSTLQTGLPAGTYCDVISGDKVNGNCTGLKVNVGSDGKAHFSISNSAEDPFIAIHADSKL
The data set is described as above. Type of data set: biochemical. As to conditions: read-out: inhibitory activity (IC50 value) against the rat pancreatic α-amylase; SD rat pancreas enzyme, starch substrate, 37° C., pH=7.0. Here is the method: as §1

Data set [3] addresses dog pancreatic α-amylase. The description is as above. Type of data set: biochemical. The conditions noted are these: beagle dog pancreas enzyme, starch substrate, 37° C., pH=7.0; read-out: inhibitory activity (IC50 value) against the dog pancreatic α-amylase. Here is the method:
as §1

Data set [4] has as its target monkey pancreatic α-amylase. The description is as above. The conditions noted are these: cynomolgus monkey pancreas enzyme, starch substrate, 37° C., pH=7.0; read-out: inhibitory activity (IC50 value) against the monkey pancreatic α-amylase. Type of data set: biochemical. Here is the method: as §1
The target in data set [5] is T3, human saliva α-amylase (Homo sapiens, UniProt P0DUB6).
T3 construct: The solutions of α-amylases from human saliva and pancreas were prepared from the enzymes purchased from Sigma-Aldrich Co; purchased Sigma-Aldrich Co; host or cells: human saliva
T3 sequence (P0DUB6 16-511): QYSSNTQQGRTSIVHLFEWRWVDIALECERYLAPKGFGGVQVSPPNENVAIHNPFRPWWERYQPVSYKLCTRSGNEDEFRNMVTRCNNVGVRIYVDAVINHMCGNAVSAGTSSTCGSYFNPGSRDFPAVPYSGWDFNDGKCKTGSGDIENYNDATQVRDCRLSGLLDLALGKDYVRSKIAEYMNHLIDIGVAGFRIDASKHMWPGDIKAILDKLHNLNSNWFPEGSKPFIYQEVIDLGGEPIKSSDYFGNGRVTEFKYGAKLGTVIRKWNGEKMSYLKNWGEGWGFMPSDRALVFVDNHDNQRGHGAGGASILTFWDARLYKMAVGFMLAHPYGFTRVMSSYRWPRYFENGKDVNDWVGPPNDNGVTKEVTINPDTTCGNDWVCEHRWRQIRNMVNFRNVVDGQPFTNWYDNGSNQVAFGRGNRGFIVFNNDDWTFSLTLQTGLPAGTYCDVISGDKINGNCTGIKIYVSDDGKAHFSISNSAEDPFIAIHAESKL
Described as above. As to conditions: enzyme from Sigma-Aldrich, starch substrate, 37° C., pH=7.0; read-out: inhibitory activity (IC50 value) against the human saliva α-amylase. Type of data set: biochemical. Here is the method: as §1

Data set [6] addresses T4, mouse pancreatic α-amylase (Mus musculus, UniProt P00688).
T4 construct: prepared from the pancreases of an ICR mouse; from tissue; host or cells: pancreas of ICR mouse (male, 8 weeks old, SLC Japan)
T4 sequence (P00688 16-508): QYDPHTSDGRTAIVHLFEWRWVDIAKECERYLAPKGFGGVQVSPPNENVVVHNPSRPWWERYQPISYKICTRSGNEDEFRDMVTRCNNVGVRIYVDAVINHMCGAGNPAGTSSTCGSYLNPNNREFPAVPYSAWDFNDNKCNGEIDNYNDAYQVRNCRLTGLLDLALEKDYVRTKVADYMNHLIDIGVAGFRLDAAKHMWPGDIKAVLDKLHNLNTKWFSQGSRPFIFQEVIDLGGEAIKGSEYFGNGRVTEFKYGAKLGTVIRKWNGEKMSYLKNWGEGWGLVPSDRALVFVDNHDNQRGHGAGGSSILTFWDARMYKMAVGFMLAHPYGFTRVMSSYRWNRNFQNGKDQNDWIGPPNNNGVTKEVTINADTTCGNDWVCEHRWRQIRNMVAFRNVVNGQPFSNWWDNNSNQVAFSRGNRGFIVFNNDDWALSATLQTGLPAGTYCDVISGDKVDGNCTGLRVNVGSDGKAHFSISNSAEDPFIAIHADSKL
The description is as above. The data set is classed as biochemical. The conditions noted are these: read-out: inhibitory activity (IC50 value) against the mouse pancreatic α-amylase; ICR mouse pancreas enzyme, starch substrate, 37° C., pH=7.0. Here is the method: as §1

Data set [7] in a line: Solubility (physicochemical properties).
Data set [8] relates to Male ICR (normal) mice. The experiment in a line: oral activity under a load of carbohydrates (blood glucose and plasma insulin). The data set is classed as in vivo, mouse. Here is the method:
Male ICR (normal) mice (6 weeks old, purchased from SLC Japan, Inc.) were used for the animal. The compound was prepared into a solution using a 0.5% methylcellulose solution. Blood was collected from a mouse which had been fasted overnight, for the measurement of the blood glucose level and the blood plasma insulin level, and the mouse was orally administered with a solvent or the compound A (0.3, 1, 3, 10 mg/kg), immediately followed by oral administration of a carbohydrate solution (75 mg/mL starch, 25 mg/mL sucrose, 20 mL/kg). Subsequently, blood was collected 0.25, 0.5 and 1 hour after the oral administration, for the measurement of the blood plasma insulin level, and blood was collected 0.5, 1 and 2 hours after the oral administration, for the measurement of the blood glucose level.
The blood glucose level was measured by using Glucose CH-test Wako reagent (Wako Pure Chemical Industry, Ltd.), and the blood plasma insulin concentration was measured by using a Mouse Insulin ELISA Kit (Shibayagi Co., Ltd.). The test results are indicated in the average ±standard error.
The area-under-curve (AUC) of the blood glucose level-time curve was calculated from the blood glucose level for the time period up to 2 hours from the administration of the compound, and the AUC of the plasma insulin level-time curve was calculated from the blood plasma insulin level for the time period up to 1 hour from the administration of the compound. A statistical analysis was performed between the solvent-administered group and the compound A-administered group by using Dunnett's multiple range test, and a critical rate of less than 5% was defined as significant.

`CC1OC(OC2C(CO)OC(OC3C(CO)=CC(NC4C(C)OC(OC5C(CO)OC(OC6C(CO)=CC(NC7C(C)OC(OC8C(CO)OC(OC9C(CO)=CC(NC%10C(C)OC(OC%11C(CO)OC(OC%12C(CO)OC(OC%13C(CO)OC(OC%14OC(CO)C(O)C(O)C%14O)C(O)C%13O)C(O)C%12O)C(O)C%11O)C(O)C%10O)C(O)C9O)C(O)C8O)C(O)C7O)C(O)C6O)C(O)C5O)C(O)C4O)C(O)C3O)C(O)C2O)C(O)C(O)C1NC1C=C(CO)C(O)C(O)C1O` (stereo not drawn) [compound A]: the IC50 (as a rule, the midpoint of a concentration-inhibition curve) worked out at 2.02 nM in data set [1]; 2.01 nM in data set [2]; 2.06 nM in data set [3]; 2.14 nM in data set [4]; 2.2 nM in data set [5]; 1.9 nM in data set [6]. For the same compound, in data set [7], the “Solubility in acetone, MeOH, EtOH and MeCN” value (shortened to “Solubility in acetone, MeOH”) is reported as “slightly soluble”. Also, in data set [7], the “Solubility in water, DMF and DMSO” value is given as “highly soluble”. The “blood glucose elevation suppressive action” value in data set [8] (oral administration 0.3 to 10 mg/kg, fasted ICR mice, carbohydrate load (starch + sucrose), glucose up to 2 hours, FIG. 7) is given as “dose-dependent blood glucose elevation suppressive action was recognized”. Also, the “plasma insulin level lowering action” value in data set [8] (oral administration 0.3 to 10 mg/kg, fasted ICR mice, carbohydrate load, insulin up to 1 hour, FIG. 8) was “dose-dependent, significant plasma insulin level lowering action was also recognized”. In addition, the “dose at which the blood glucose elevation suppressive action was significant” value in data set [8] (oral, ICR mice, carbohydrate load, Dunnett's test vs solvent group) was no less than 1 mg/kg.

Regarding `CC1OC(OC2C(CO)OC(OC3C(CO)=CC(NC4C(C)OC(OC5C(CO)OC(OC6C(CO)=CC(NC7C(C)OC(OC8C(CO)OC(OC9C(CO)=CC(NC%10C(C)OC(OC%11C(CO)OC(OC%12C(CO)=CC(NC%13C(C)OC(OC%14C(CO)OC(OC%15C(CO)OC(OC%16C(CO)OC(OC%17OC(CO)C(O)C(O)C%17O)C(O)C%16O)C(O)C%15O)C(O)C%14O)C(O)C%13O)C(O)C%12O)C(O)C%11O)C(O)C%10O)C(O)C9O)C(O)C8O)C(O)C7O)C(O)C6O)C(O)C5O)C(O)C4O)C(O)C3O)C(O)C2O)C(O)C(O)C1NC1C=C(CO)C(O)C(O)C1O` (stereo not drawn) [compound B], the half-maximal inhibitory concentration (IC50) amounted to 2.11 nM in data set [1]; 2.12 nM in data set [2]; 2.38 nM in data set [3]; 1.9 nM in data set [4]; 1.87 nM in data set [5]; 2.06 nM in data set [6]. In data set [7], the “Solubility in acetone, MeOH” value is given as “slightly soluble”. In addition, in data set [7], the “Solubility in water, DMF and DMSO” value was “highly soluble”.

Take `CC1OC(OC2C(CO)OC(OC3C(CO)=CC(NC4C(C)OC(OC5C(CO)OC(OC6C(CO)=CC(NC7C(C)OC(OC8C(CO)OC(OC9C(CO)=CC(NC%10C(C)OC(OC%11C(CO)OC(OC%12C(CO)=CC(NC%13C(C)OC(OC%14C(CO)OC(OC%15C(CO)=CC(NC%16C(C)OC(OC%17C(CO)OC(OC%18C(CO)OC(OC%19C(CO)OC(OC%20OC(CO)C(O)C(O)C%20O)C(O)C%19O)C(O)C%18O)C(O)C%17O)C(O)C%16O)C(O)C%15O)C(O)C%14O)C(O)C%13O)C(O)C%12O)C(O)C%11O)C(O)C%10O)C(O)C9O)C(O)C8O)C(O)C7O)C(O)C6O)C(O)C5O)C(O)C4O)C(O)C3O)C(O)C2O)C(O)C(O)C1NC1C=C(CO)C(O)C(O)C1O` (stereo not drawn) [compound C]: the IC50 in data set [1] was found to be 2.21 nM; in data set [2] it was 1.95 nM; in data set [3] it was 2.07 nM; in data set [4] it was 2.02 nM; in data set [5], 1.99 nM; in data set [6], 1.73 nM. Also, the “Solubility in acetone, MeOH” value in data set [7] is “slightly soluble”. In addition, in data set [7], the “Solubility in water, DMF and DMSO” value is on record as “highly soluble”.
